“And” between values parts separate entries of the source, which are not always exact repeats. Equal entries are not always repeated. Toxic doses and inconclusive results are not listed.
Tested on: CD2F1 mice, L1210 leukemia ip, survival T/C
Assay: NCI In Vivo Anticancer Drug Screen. Data for tumor model L1210 Leukemia (intraperitoneal) in CD2F1 (CDF1) mice
Settings: higher = longer survival
Outline: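 Implant tumor; dose compound or vehicle; measure endpoint in both groups; report treated divided by control.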

[1] = endpoint: mean survival time, dose: 100.0 mg/kg/injection, schedule: Q01DX001 (ip), vehicle: saline
[2] = endpoint: mean survival time, dose: 200.0 mg/kg/injection, schedule: Q01DX001 (ip), vehicle: saline
[3] = endpoint: mean survival time, dose: 400.0 mg/kg/injection, schedule: Q01DX001 (ip), vehicle: saline
[4] = endpoint: mean survival time, dose: 50.0 mg/kg/injection, schedule: Q01DX009 (ip), vehicle: saline with Tween-80
[5] = endpoint: mean survival time, dose: 100.0 mg/kg/injection, schedule: Q01DX009 (ip), vehicle: saline with Tween-80
[6] = endpoint: mean survival time, dose: 6.25 mg/kg/injection, schedule: Q01DX009 (ip), vehicle: saline with Tween-80
[7] = endpoint: mean survival time, dose: 12.5 mg/kg/injection, schedule: Q01DX009 (ip), vehicle: saline with Tween-80
[8] = endpoint: mean survival time, dose: 25.0 mg/kg/injection, schedule: Q01DX009 (ip), vehicle: saline with Tween-80
[9] = endpoint: mean survival time, dose: 200.0 mg/kg/injection, schedule: Q01DX009 (ip), vehicle: saline with Tween-80
[10] = endpoint: mean survival time, dose: 400.0 mg/kg/injection, schedule: Q01DX009 (ip), vehicle: saline with Tween-80

O=C(CCl)NCCCCNC(=O)CCl
T/C [1]: 101 % of control | T/C [2]: 98 % of control | T/C [3]: 100 % of control

[Pd+2].[S-]CC[S-]
T/C (endpoint: mean survival time, dose: 3.13 mg/kg/injection, schedule: Q04DX003 (ip), vehicle: distilled water + Tween-80): 101 % of control | T/C (endpoint: mean survival time, dose: 6.25 mg/kg/injection, schedule: Q04DX003 (ip), vehicle: distilled water + Tween-80): 102 % of control | T/C (endpoint: mean survival time, dose: 12.5 mg/kg/injection, schedule: Q04DX003 (ip), vehicle: distilled water + Tween-80): 101 % of control | T/C (endpoint: mean survival time, dose: 25.0 mg/kg/injection, schedule: Q04DX003 (ip), vehicle: distilled water + Tween-80): 104 % of control | T/C (endpoint: mean survival time, dose: 50.0 mg/kg/injection, schedule: Q04DX003 (ip), vehicle: distilled water + Tween-80): 95 % of control | T/C (endpoint: mean survival time, dose: 100.0 mg/kg/injection, schedule: Q04DX003 (ip), vehicle: distilled water + Tween-80): 95 % of control | T/C (endpoint: mean survival time, dose: 200.0 mg/kg/injection, schedule: Q04DX003 (ip), vehicle: distilled water + Tween-80): 95 % of control

COc1ccc2ccccc2c1-c1c(OC)ccc2ccccc12
T/C (endpoint: mean survival time, dose: 100.0 mg/kg/injection, schedule: Q01DX001 (ip), vehicle: saline with Tween-80): 100 % of control | T/C (endpoint: mean survival time, dose: 200.0 mg/kg/injection, schedule: Q01DX001 (ip), vehicle: saline with Tween-80): 103 % of control | T/C (endpoint: mean survival time, dose: 400.0 mg/kg/injection, schedule: Q01DX001 (ip), vehicle: saline with Tween-80): 100 % of control

C/C(=C\CC(=O)C/C=C(\C)CCCC(C)CCCC(C)CCCC(C)C)CCCC(C)CCCC(C)CCCC(C)C (stereo not given)
T/C (endpoint: mean survival time, dose: 100.0 mg/kg/injection, schedule: Q04DX002 (ip), vehicle: saline with Tween-80): 103 % of control | T/C (endpoint: mean survival time, dose: 200.0 mg/kg/injection, schedule: Q04DX002 (ip), vehicle: saline with Tween-80): 103 % of control | T/C (endpoint: mean survival time, dose: 400.0 mg/kg/injection, schedule: Q04DX002 (ip), vehicle: saline with Tween-80): 96 % of control

O=C(CCCN1CCC(O)CC1)c1ccccc1
T/C [4]: 88 % of control | T/C [5]: 94 % of control

CC(CNCCN)C[Si](C)(C)C (stereo not given)
T/C [6]: 100 % of control | T/C [7]: 98 % of control | T/C [8]: 104 % of control

Nn1c2ccccc2c2ccccc21
T/C (endpoint: mean survival time, dose: 75.0 mg/kg/injection, schedule: Q01DX001 (ip), vehicle: saline): 98 % of control | T/C (endpoint: mean survival time, dose: 150.0 mg/kg/injection, schedule: Q01DX001 (ip), vehicle: saline): 106 % of control

O=C(Nc1ccc(N(CCCl)CCCl)cc1)c1ccccc1
T/C (endpoint: mean survival time, dose: 100.0 mg/kg/injection, schedule: Q04DX003 (ip), vehicle: Klucel (hydroxypropylcellulose) (HPC)): 96 % of control | T/C (endpoint: mean survival time, dose: 200.0 mg/kg/injection, schedule: Q04DX003 (ip), vehicle: Klucel (hydroxypropylcellulose) (HPC)): 101 % of control | T/C (endpoint: mean survival time, dose: 400.0 mg/kg/injection, schedule: Q04DX003 (ip), vehicle: Klucel (hydroxypropylcellulose) (HPC)): 109 % of control

Nc1nc(/C=C(/O)c2ccccc2)c2ncn(C3OC(CO)C(O)C3O)c2n1 (stereo not given)
T/C (endpoint: mean survival time, dose: 12.5 mg/kg/injection, schedule: Q01DX005 (ip), vehicle: distilled water + Tween-80): 103 % of control | T/C (endpoint: mean survival time, dose: 12.5 mg/kg/injection, schedule: Q01DX009 (ip), vehicle: distilled water + Tween-80): 89 % of control | T/C (endpoint: mean survival time, dose: 25.0 mg/kg/injection, schedule: Q01DX005 (ip), vehicle: distilled water + Tween-80): 114 % of control and 115 % of control | T/C (endpoint: mean survival time, dose: 25.0 mg/kg/injection, schedule: Q01DX009 (ip), vehicle: distilled water + Tween-80): 89 % of control | T/C (endpoint: mean survival time, dose: 50.0 mg/kg/injection, schedule: Q01DX005 (ip), vehicle: distilled water + Tween-80): 120 % of control | T/C (endpoint: mean survival time, dose: 50.0 mg/kg/injection, schedule: Q01DX009 (ip), vehicle: distilled water + Tween-80): 92 % of control | T/C (endpoint: mean survival time, dose: 100.0 mg/kg/injection, schedule: Q01DX005 (ip), vehicle: distilled water + Tween-80): 160 % of control | T/C (endpoint: mean survival time, dose: 100.0 mg/kg/injection, schedule: Q01DX009 (ip), vehicle: distilled water + Tween-80): 102 % of control | T/C (endpoint: mean survival time, dose: 200.0 mg/kg/injection, schedule: Q01DX009 (ip), vehicle: distilled water + Tween-80): 103 % of control | T/C (endpoint: median survival time, dose: 12.5 mg/kg/injection, schedule: Q01DX009 (ip), vehicle: distilled water + Tween-80): 103 % of control | T/C (endpoint: median survival time, dose: 25.0 mg/kg/injection, schedule: Q01DX009 (ip), vehicle: distilled water + Tween-80): 107 % of control | T/C (endpoint: median survival time, dose: 50.0 mg/kg/injection, schedule: Q01DX009 (ip), vehicle: distilled water + Tween-80): 111 % of control | T/C (endpoint: median survival time, dose: 100.0 mg/kg/injection, schedule: Q01DX009 (ip), vehicle: distilled water + Tween-80): 113 % of control

CC1CC[N+](C)(CC(=O)c2ccc(-c3ccc(C(=O)C[N+]4(C)CCC(C)CC4)cc3)cc2)CC1 (stereo not given)
T/C (endpoint: mean survival time, dose: 0.02 mg/kg/injection, schedule: Q04DX003 (ip), vehicle: Klucel (hydroxypropylcellulose) (HPC)): 96 % of control | T/C (endpoint: mean survival time, dose: 0.04 mg/kg/injection, schedule: Q04DX003 (ip), vehicle: Klucel (hydroxypropylcellulose) (HPC)): 98 % of control | T/C (endpoint: mean survival time, dose: 0.08 mg/kg/injection, schedule: Q04DX003 (ip), vehicle: Klucel (hydroxypropylcellulose) (HPC)): 87 % of control and 95 % of control

Cc1cn2c(nc1=O)OC1C(O)C(CCl)OC12 (stereo not given)
T/C (endpoint: median survival time, dose: 12.5 mg/kg/injection, schedule: Q01DX005 (ip), vehicle: saline with Tween-80): 103 % of control | T/C (endpoint: median survival time, dose: 25.0 mg/kg/injection, schedule: Q01DX005 (ip), vehicle: saline with Tween-80): 96 % of control | T/C (endpoint: median survival time, dose: 50.0 mg/kg/injection, schedule: Q01DX005 (ip), vehicle: saline with Tween-80): 103 % of control | T/C (endpoint: median survival time, dose: 100.0 mg/kg/injection, schedule: Q01DX005 (ip), vehicle: saline with Tween-80): 95 % of control | T/C (endpoint: median survival time, dose: 200.0 mg/kg/injection, schedule: Q01DX005 (ip), vehicle: saline with Tween-80): 94 % of control

NC(CO)C(O)C(O)C(O)CO (stereo not given)
T/C [1]: 106 % of control | T/C [2]: 98 % of control | T/C [3]: 103 % of control

COc1ccc(OC)c(/C=C/c2cc3ccccc3c[n+]2C)c1
T/C (endpoint: mean survival time, dose: 3.13 mg/kg/injection, schedule: Q01DX009 (ip), vehicle: saline with Tween-80): 94 % of control | T/C [6]: 102 % of control | T/C [7]: 105 % of control

CC[N+](CC)(CCOc1ccc(C(C)(C)CC(C)(C)C)cc1)Cc1ccccc1
T/C (endpoint: mean survival time, dose: 5.0 mg/kg/injection, schedule: Q04DX003 (ip), vehicle: saline): 102 % of control

COC(=O)C(Cl)(Cl)c1nc(NC(C)=O)[nH]c(=O)c1Cl
T/C (endpoint: mean survival time, dose: 100.0 mg/kg/injection, schedule: Q04DX003 (ip), vehicle: saline with Tween-80): 95 % of control | T/C (endpoint: mean survival time, dose: 200.0 mg/kg/injection, schedule: Q04DX003 (ip), vehicle: saline with Tween-80): 98 % of control | T/C (endpoint: mean survival time, dose: 400.0 mg/kg/injection, schedule: Q04DX003 (ip), vehicle: saline with Tween-80): 91 % of control

COc1ccc2nc3cc(Cl)ccc3c(Nc3ccc(NS(C)(=O)=O)cc3)c2n1
T/C (endpoint: mean survival time, dose: 12.5 mg/kg/injection, schedule: Q01DX009 (ip), vehicle: other): 96 % of control | T/C (endpoint: mean survival time, dose: 25.0 mg/kg/injection, schedule: Q01DX009 (ip), vehicle: other): 104 % of control | T/C (endpoint: mean survival time, dose: 50.0 mg/kg/injection, schedule: Q01DX009 (ip), vehicle: other): 96 % of control | T/C (endpoint: mean survival time, dose: 100.0 mg/kg/injection, schedule: Q01DX009 (ip), vehicle: other): 94 % of control

Cc1[nH]c(=O)[nH]c(=O)c1NC(=O)c1ccccc1[N+](=O)[O-]
T/C [7]: 98 % of control | T/C (endpoint: mean survival time, dose: 12.5 mg/kg/injection, schedule: Q04DX003 (ip), vehicle: saline sonified): 100 % of control | T/C [8]: 104 % of control | T/C (endpoint: mean survival time, dose: 25.0 mg/kg/injection, schedule: Q04DX003 (ip), vehicle: saline sonified): 103 % of control | T/C [4]: 97 % of control | T/C (endpoint: mean survival time, dose: 50.0 mg/kg/injection, schedule: Q04DX003 (ip), vehicle: saline sonified): 94 % of control

COC1OC(CO)C(O)C(OC)C1OC (stereo not given) (tested in a mixture with another compound)
T/C [1]: 100 % of control | T/C [2]: 100 % of control | T/C [3]: 100 % of control

ClCc1c2ccccc2cc2ccccc12
T/C (endpoint: mean survival time, dose: 25.0 mg/kg/injection, schedule: Q04DX002 (ip), vehicle: saline with Tween-80): 104 % of control

COc1cc(Cl)cc(OC)c1
T/C [5]: 100 % of control | T/C [9]: 104 % of control | T/C [10]: 103 % of control

O=C1c2ccccc2C(=O)N1Cc1cc([N+](=O)[O-])ccc1Cl
T/C (endpoint: mean survival time, dose: 50.0 mg/kg/injection, schedule: Q01DX009 (ip), vehicle: Klucel (hydroxypropylcellulose) (HPC)): 92 % of control | T/C (endpoint: mean survival time, dose: 100.0 mg/kg/injection, schedule: Q01DX009 (ip), vehicle: Klucel (hydroxypropylcellulose) (HPC)): 94 % of control | T/C (endpoint: mean survival time, dose: 200.0 mg/kg/injection, schedule: Q01DX009 (ip), vehicle: Klucel (hydroxypropylcellulose) (HPC)): 90 % of control

Nc1cc(Cl)ccc1C(=O)O
T/C [5]: 103 % of control | T/C [9]: 104 % of control | T/C [10]: 86 % of control

From PubChem BioAssay AID256 (DTP/NCI, 2004)
